Laboratory results from ChEMBL document CHEMBL1201862, “PubChem BioAssay data set” (2004).
Values joined by “and” are separate entries in the source; they are usually repeats but may differ in a detail not shown here. Equal values may be shown once.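 Compound exposure: 48 hours, 5 concentrations, 96-well plates. Here, GI50 denotes the concentration required for 50% inhibition of growth.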 Active and inactive are the calls of the source. Rule as the data show it: active = GI50 up to about 1.1 µM and inactive = higher.

Tests used:
Assay in all cases: NCI-60 cell line screen, 48 h
UO-31 = system: UO-31
786-0 = system: 786-0
A498 = system: A498
UACC-257 = system: UACC-257
A549 = system: A549
HCT-116 = system: HCT-116
MDA-N = system: MDA-N
HOP-92 = system: HOP-92
DU-145 = system: DU-145
PC-3 = system: PC-3
SK-MEL-5 = system: SK-MEL-5
U-251 = system: U-251
K562 = system: K562
CAKI-1 = system: CAKI-1
SF-539 = system: SF-539
NCI/ADR-RES = system: NCI/ADR-RES
MOLT-4 = system: MOLT-4
NCI-H522 = system: NCI-H522
T47D = system: T47D
SN12C = system: SN12C

Structure (SMILES)	GI50 (UO-31)	GI50 (786-0)	GI50 (A498)	GI50 (UACC-257)	GI50 (A549)	GI50 (HCT-116)	GI50 (MDA-N)	GI50 (HOP-92)	GI50 (DU-145)	GI50 (PC-3)	GI50 (SK-MEL-5)	GI50 (U-251)	GI50 (K562)	GI50 (CAKI-1)	GI50 (SF-539)	GI50 (NCI/ADR-RES)	GI50 (MOLT-4)	GI50 (NCI-H522)	GI50 (T47D)	GI50 (SN12C)
CN(CCCNC(=O)c1cn(C)c2c1ccc1cc(Cl)c(Cl)cc12)CCCNC(=O)c1cn(C)c2c1ccc1cc(Cl)c(Cl)cc12	16.7 µM (inactive)	6.27 µM (inactive)	12.9 µM (inactive)	19.3 µM (inactive)	11 µM (inactive)	12.2 µM (inactive)	15.9 µM (inactive)	11.6 µM (inactive)	15.3 µM (inactive)	13.3 µM (inactive)	14.7 µM (inactive)	3.03 µM (inactive)	5.41 µM (inactive)	11.6 µM (inactive)	15.7 µM (inactive)	15.2 µM (inactive)	10.4 µM (inactive)	14.6 µM (inactive)	13.7 µM (inactive)	13.6 µM (inactive)
NC(=O)N/N=C1/c2ccccc2-n2nccc21	–	76.6 µM (inactive)	38.7 µM (inactive)	> 100 µM (inactive)	78.3 µM (inactive)	30.8 µM (inactive)	43.1 µM (inactive)	64.7 µM (inactive)	> 100 µM (inactive)	> 100 µM (inactive)	82.8 µM (inactive)	> 100 µM (inactive)	75.7 µM (inactive)	52.5 µM (inactive)	48.5 µM (inactive)	> 100 µM (inactive)	47.1 µM (inactive)	> 100 µM (inactive)	27.4 µM (inactive)	89.9 µM (inactive)
O=C(Nc1nnc(-c2ccc(Cl)cc2)o1)C(SC(=S)N1CCCCC1)c1ccccc1 (stereo not given)	10.5 µM (inactive)	14.8 µM (inactive)	18.5 µM (inactive)	21.7 µM (inactive)	16.4 µM (inactive)	12.7 µM (inactive)	15.5 µM (inactive)	22.7 µM (inactive)	25.7 µM (inactive)	22.4 µM (inactive)	15.7 µM (inactive)	13 µM (inactive)	11.6 µM (inactive)	13.6 µM (inactive)	30 µM (inactive)	4.84 µM (inactive)	1.31 µM (inactive)	17.6 µM (inactive)	27.2 µM (inactive)	12.5 µM (inactive)
Cn1c2c(c3ccccc31)CC(=O)N1CCCCC1C21OCCO1 (stereo not given)	> 100 µM (inactive)	> 100 µM (inactive)	> 100 µM (inactive)	> 100 µM (inactive)	> 100 µM (inactive)	> 100 µM (inactive)	> 100 µM (inactive)	> 100 µM (inactive)	> 100 µM (inactive)	> 100 µM (inactive)	> 100 µM (inactive)	> 100 µM (inactive)	–	> 100 µM (inactive)	–	> 100 µM (inactive)	> 100 µM (inactive)	–	> 100 µM (inactive)	> 100 µM (inactive)
CC1(c2cccc(C(F)(F)F)c2)CC(c2cccc(C(F)(F)F)c2)=C(C#N)C(=C(C#N)C#N)N1 (stereo not given)	18.6 µM (inactive)	17 µM (inactive)	18.1 µM (inactive)	15.9 µM (inactive)	19.5 µM (inactive)	15.2 µM (inactive)	18 µM (inactive)	2.3 µM (inactive)	17.2 µM (inactive)	19.4 µM (inactive)	15.2 µM (inactive)	18.4 µM (inactive)	15.2 µM (inactive)	18.7 µM (inactive)	17.4 µM (inactive)	19.5 µM (inactive)	19.2 µM (inactive)	–	17 µM (inactive)	18.1 µM (inactive)
COc1cc2c(cc1OC)C1=Cc3cc(OC)c(OC)cc3C(C)N1C=C2 (stereo not given)	55.1 µM (inactive)	> 100 µM (inactive)	82.6 µM (inactive)	33.7 µM (inactive)	> 100 µM (inactive)	50.2 µM (inactive)	51.5 µM (inactive)	> 100 µM (inactive)	> 100 µM (inactive)	12.3 µM (inactive)	38.4 µM (inactive)	37.2 µM (inactive)	25.9 µM (inactive)	–	> 100 µM (inactive)	> 100 µM (inactive)	35.2 µM (inactive)	–	29.3 µM (inactive)	87.5 µM (inactive)
CC(=O)Oc1cc2c(cc1OC(C)=O)[C@H]1CC[C@]3(C)[C@@H](OC(C)=O)CC[C@H]3[C@@H]1CC2	2.19 µM (inactive)	4.78 µM (inactive)	11.8 µM (inactive)	9.66 µM (inactive)	7.96 µM (inactive)	–	0.773 µM (active)	1.1 µM (active)	3.15 µM (inactive)	9.29 µM (inactive)	5.62 µM (inactive)	4.95 µM (inactive)	2.23 µM (inactive)	3.22 µM (inactive)	–	9.53 µM (inactive)	–	1.16 µM (inactive)	7.26 µM (inactive)	–
COc1cc(OC)cc(-c2nc(O)c3ccccc3n2)c1	71.9 µM (inactive)	25.4 µM (inactive)	31.1 µM (inactive)	> 100 µM (inactive)	> 100 µM (inactive)	42.5 µM (inactive)	> 100 µM (inactive)	> 100 µM (inactive)	> 100 µM (inactive)	> 100 µM (inactive)	> 100 µM (inactive)	39.3 µM (inactive)	> 100 µM (inactive)	> 100 µM (inactive)	–	40.7 µM (inactive)	> 100 µM (inactive)	–	> 100 µM (inactive)	> 100 µM (inactive)
COC(=O)[C@H](Cc1ccccc1)NC(=O)[C@H](Cc1ccccc1)NC(=O)CN1C(=O)[C@@H]2C3C=CC(C3)[C@@H]2C1=O	23.3 µM (inactive) and 15.7 µM (inactive)	15.5 µM (inactive) and 14.2 µM (inactive)	22.9 µM (inactive) and 16.8 µM (inactive)	17.6 µM (inactive) and 16.4 µM (inactive)	22 µM (inactive) and 21.1 µM (inactive)	16.6 µM (inactive) and 14.3 µM (inactive)	16.5 µM (inactive) and 17.2 µM (inactive)	18.3 µM (inactive) and 20.6 µM (inactive)	20.1 µM (inactive) and 17.9 µM (inactive)	15.6 µM (inactive) and 16.4 µM (inactive)	18.2 µM (inactive) and 15 µM (inactive)	16.4 µM (inactive) and 17.6 µM (inactive)	–	16.7 µM (inactive) and 18.6 µM (inactive)	18.7 µM (inactive) and 17.9 µM (inactive)	33 µM (inactive) and 22.2 µM (inactive)	3.32 µM (inactive) and 2.26 µM (inactive)	16 µM (inactive) and 14.1 µM (inactive)	21.9 µM (inactive) and 21.7 µM (inactive)	18.2 µM (inactive) and 16.7 µM (inactive)
CCOC(=O)c1cc(NC(=O)N(CCC#N)CCN(C(=O)N[C@@H](Cc2ccccc2)C(=O)N[C@@H](CC(C)C)C(=O)NC)c2ccccc2)ccc1OC	34.4 µM (inactive)	45.3 µM (inactive)	63.7 µM (inactive)	24 µM (inactive)	> 100 µM (inactive)	42.4 µM (inactive)	57.1 µM (inactive)	34.3 µM (inactive)	44.6 µM (inactive)	49.4 µM (inactive)	42.3 µM (inactive)	> 10 µM (inactive)	–	> 100 µM (inactive)	31.3 µM (inactive)	> 100 µM (inactive)	23.4 µM (inactive)	–	28.1 µM (inactive)	33.7 µM (inactive)
O=C(c1ccc(O)c([N+](=O)[O-])c1)c1ccc(O)c([N+](=O)[O-])c1	66.2 µM (inactive)	> 100 µM (inactive)	> 100 µM (inactive)	81.7 µM (inactive)	89.9 µM (inactive)	> 100 µM (inactive)	53.7 µM (inactive)	24 µM (inactive)	> 100 µM (inactive)	66.5 µM (inactive)	> 100 µM (inactive)	> 100 µM (inactive)	50.1 µM (inactive)	> 100 µM (inactive)	53.5 µM (inactive)	43.6 µM (inactive)	–	> 100 µM (inactive)	> 100 µM (inactive)	> 100 µM (inactive)
COc1ccc(CC2Cc3ccccc3CC(=O)N2)cc1OC (stereo not given)	> 100 µM (inactive)	> 100 µM (inactive)	> 100 µM (inactive)	47.4 µM (inactive)	> 100 µM (inactive)	98.9 µM (inactive)	52.5 µM (inactive)	89.5 µM (inactive)	> 100 µM (inactive)	40.3 µM (inactive)	14.3 µM (inactive)	> 100 µM (inactive)	44.9 µM (inactive)	> 100 µM (inactive)	> 100 µM (inactive)	27.5 µM (inactive)	24.6 µM (inactive)	–	17.3 µM (inactive)	> 100 µM (inactive)
CCN(CC)CCOC(c1cc(OC)ccc1OC)c1ccc2n1-c1ccccc1OC2 (stereo not given)	11 µM (inactive)	15.6 µM (inactive)	11.8 µM (inactive)	16 µM (inactive)	14 µM (inactive)	12.6 µM (inactive)	13.6 µM (inactive)	1.89 µM (inactive)	22.9 µM (inactive)	12.8 µM (inactive)	10.4 µM (inactive)	14.9 µM (inactive)	7.23 µM (inactive)	14.9 µM (inactive)	–	2.57 µM (inactive)	–	15.2 µM (inactive)	24 µM (inactive)	2.48 µM (inactive)
